These results are taken from patent publication US20230271923A1, “IMAGING AND TARGETING PROGRAMMED DEATH LIGAND-1 (PD-LI) EXPRESSION” (The Johns Hopkins University, priority 2020, published 2023).

For one data set, the target named is PD-L1 (Homo sapiens, UniProt Q9NZQ7). As to conditions: cited from earlier work.
The conditions of data set [1]: circulating half-life; cited from earlier work.
A further data set has as its system LOX-IMVI tumors. Nature of the data set: aPD-L1 mAb dosing studies, accessible PD-L1 levels by [^18F]DK222 uptake. It counts as in vivo, NSG mice. As to conditions: for reduction in [^18F]DK222 uptake in tumors vs vehicle: 24 hour before tracer, ex vivo. As to the method:
To confirm the in vitro observations in vivo, NSG mice bearing LOX-IMVI tumors were treated with a single dose of 0.3 or 20 mg/kg of Atezolizumab, administered intravenously as a bolus, 24 hour before [^18F]DK222 injection (FIG. 5B, FIG. 5C and FIG. 5D). […] Importantly, there was a modest reduction in signal intensity when a low 0.3 mg/kg dose of Atezolizumab was used.
The aim of this experiment was to evaluate the potential of [^18F]DK222 to detect the heterogeneity in binding of different mAbs, thus proving in principle that it can be used to guide the choice between the multiple mAbs available for treatment. […] Separate groups of animals were injected with a single 1 mg/kg dose of (only) one of these mAbs, and after either 24 or 96 hours, each group was injected with [^18F]DK222, imaged, or sacrificed and the [^18F]DK222 signal was quantified (FIG. 6A). The difference in lower [^18F]DK222 signal, at 24 hours between any PD-L1 mAb vs Nivolumab constitutes the saturation binding of the PD-L1 mAb. On the other hand, the higher [^18F]DK222 signal at 96 hours versus that at 24 hours represents loss of the mAb from its binding site, making more PD-L1 accessible to [^18F]DK222. The experiment was repeated in two different tumor models: LOXIMVI and MDAMB231.
1.3.17 aPD-L1 mAb dosing studies. To determine the effect of antibody dose on accessible PD-L1 levels in the tumor, LOX-IMVI tumor-bearing mice were treated with a single intravenous bolus dose of Atezolizumab (0.3 or 20 mg/Kg) and 24 hours later mice were used for imaging (n=3-4) and biodistribution (n=6-8) studies.
Anti PD-1 antibody Nivolumab (1 mg/kg) and saline were used as controls. Mice treated for 24 h with therapeutic mAbs, or saline as a control, were injected with 200 μCi of [^18F]DK222 in 200 μL of saline intravenously, and PET images were acquired 1 hour after the injection of the radiotracer. Due to the many number of groups and mice involved, saline and Nivolumab-treated controls were included in every experiment, and data from multiple experiments were pooled. Study was repeated in MDAMB231 tumor-bearing mice with only biodistribution measurements.

Data set [2] concerns PD-L1 levels in melanoma cells. Description: effect of IFNγ treatment on PD-L1 levels by flow cytometry. The data set is classed as cell-based, human. How it is done:
First, the effect of adaptive immune response on the PD-L1 expression in melanoma cells was investigated by assessing changes in PD-L1 levels induced by IFNγ treatment. LOX-IMVI, A375, and MeWO melanoma cells treated with IFNγ were analyzed for changes in PD-L1 levels.
1.3.8 Detection of PD-L1 expression by flow cytometry. Cells were evaluated for PD-L1 surface expression by direct staining of 2×10^5 cells in 100 μL PBS with Cy5-Atezolizumab, for 30 min at 4° C. Cy5-Atezolizumab was prepared as described previously. Kumar et al., 2019. Cells were then washed and analyzed for mean fluorescence intensity (MFI) by flow cytometry. Adherent cells were detached using enzyme-free cell dissociation buffer (Thermo Fisher Scientific, Waltham, Mass.). 1.3.9 In vitro binding assays with [^18F]DK222. In vitro binding of [^18F]DK222 to hPD-L1 MDAMB231, MeWo, A375, Sum149, and CHO cells was determined by incubating 1×10^6 cells with approximately […] of [^18F]DK222 in the presence, or absence, of 1 μM of DK222 or 60 nM mAbs for 30 min at 4° C. After incubation, cells were washed three times with ice cold PBS containing 0.1% Tween20 and counted on an automated gamma counter (1282 Compugamma CS, Pharmacia/LKBNuclear, Inc., Gaithersburg, Md.). […] All cell radioactivity uptake studies were performed in quadruplicate for each cell line and repeated three times.

Another data set concerns the target PD-L1 binding to PD-1 (Homo sapiens, UniProt Q9NZQ7). Nature of the data set: competitive PD-1:PD-L1 inhibition assay (HTRF PD1/PD-L1 binding assay). As to the method:
To modify DK221 for radiolabeling, a bifunctional chelator, e.g., NCS-MP-NODA, was conjugated to the free lysine amine to generate DK222. The NODA chelator was used for radiofluorination to produce [^18F]DK222, as well as a non-radioactive analog [^19F]DK222. (FIG. 1A, FIG. 10 and FIG. 11). A competitive PD-1:PD-L1 inhibition assay was performed to characterize binding affinity of the peptide analogs to PD-L1. […] [^18F]Fluoride-radiolabeling of peptides and small molecules by aluminum fluoride (AlF) method is gaining attention due to the ease of synthesis and the potential to retain the hydrophilicity of the binding moiety. McBride et al., 2010; Kumar et al., 2018. The radiolabeled analog, [^18F]DK222 was synthesized by AlF method in good radiochemical yields (34.85±1.7%, n=62), in vitro stability, and moderate specific activity of 284±56 mCi/μmol (10.51±2.07 GBq/μmol, n=25). […] (FIG. 12, FIG. 13 and FIG. 14).

A further data set has as its system A375 melanoma xenografts. Nature of the data set: aPD-1 mAb dosing study, [^18F]DK222 uptake in A375 tumors. The data set is classed as in vivo. Particulars: huPBMC mice, single dose aPD-1 mAb 12 mg/kg, one week. As to the method:
A humanized mouse model was used to quantify the differences in tumor PD-L1 levels as a measure of adaptive immune response to treatment with different aPD-1 mAbs. NSG mice humanized with PBMCs (huPBMC) bearing A375 melanoma xenografts were treated with a single dose of aPD-1 mAbs (12 mg/kg). Following one week of treatment, tumor PD-L1 levels were measured by [^18F]DK222-PET and by ex vivo counting 24 hours later (FIG. 4A). As controls, tumor-bearing huPBMC mice treated with saline and NSG mice treated with Pembrolizumab and Nivolumab were included.
1.3.14 aPD-1 mAb dosing studies. huPBMC mice acquired from JAX labs were implanted subcutaneously with 2×10^6 A375 cells in the rostral end. Seven days after cell inoculation (average tumor volume=80±15 mm^3), mice were randomized and treated with a single 12 mg/kg dose of Nivolumab or Pembrolizumab injected intravenously (n=9/group). huPBMC mice treated with saline (n=4-5/group). or NSG mice treated with 12 mg/kg dose of Nivolumab or Pembrolizumab were used as controls. Seven days following treatment, [^18F]DK222 PET scans were acquired on at least 3-5 mice per group. […]
1.3.15 Flow cytometry analysis. […] Cells were counted and 1×10^6 cells were resuspended in 100 μL Live/Dead aqua solution (ThermoFisher #L34965, 2 μL reconstituted with 2 mL PBS) in a 96 well plate. […]

For the next data set, the system named is hPD-L1/CHO xenografts. Particulars: in vivo.

Where a SMILES comes first, the peptide text is derived from it. Bridges are numbered along the chain shown (N, C = ends). [ ]: non-standard residue; d: D form. The star is where a group is joined. Trp(1-CH2COOH) = N[C@@H](Cc1cn(CC(=O)O)c2ccccc12)C(=O)O; X1 = O=C(O)CN1CCN(CC(=O)O)CCN(Cc2ccc(NC(=S)*)cc2)CC1; Hyp = O=C(O)[C@@H]1C[C@@H](O)CN1; NMeNle = CCCC[C@H](NC)C(=O)O; NMeA = CN[C@@H](C)C(=O)O

PD-L1, sequence (Q9NZQ7 19-290): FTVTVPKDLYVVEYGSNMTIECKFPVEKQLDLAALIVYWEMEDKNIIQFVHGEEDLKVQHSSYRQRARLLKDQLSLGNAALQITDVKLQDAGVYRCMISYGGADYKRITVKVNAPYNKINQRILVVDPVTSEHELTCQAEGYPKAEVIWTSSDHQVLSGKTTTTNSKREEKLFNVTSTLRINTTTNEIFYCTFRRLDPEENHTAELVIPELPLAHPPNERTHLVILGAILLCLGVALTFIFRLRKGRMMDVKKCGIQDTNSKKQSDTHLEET
PD-L1 binding to PD-1, sequence (Q9NZQ7 19-238 limits assumed): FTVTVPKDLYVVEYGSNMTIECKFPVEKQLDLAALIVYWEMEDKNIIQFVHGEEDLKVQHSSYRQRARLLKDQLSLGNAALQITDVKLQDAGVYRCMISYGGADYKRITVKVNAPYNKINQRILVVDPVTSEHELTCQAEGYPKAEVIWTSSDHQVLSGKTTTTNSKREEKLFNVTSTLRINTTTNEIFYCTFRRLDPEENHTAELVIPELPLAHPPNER

Regarding Durvalumab: aPD-L1 mAb, the Kd in the data set with PD-L1 is 22 pM. Also, the t1/2 in data set [1] is 18 days. The “accessible PD-L1 levels reduced” value in the data set with LOX-IMVI tumors (1 mg/kg mAb, LOX-IMVI tumors, 24 h and 96 h) is reported as not below 70%.

Take “IFNγ: cytokine used to treat melanoma cells to induce PD-L1”: the “increase in PD-L1 levels” value in data set [2] (A375 cells) was “four-fold”; in data set [2] (LOX-IMVI cells) it was “two”. For the same molecule, in data set [2] (MeWo cells), the “change in PD-L1 levels” value was “No differences”.

As to `CCCC[C@H]1C(=O)N(C)[C@@H](CCCC)C(=O)N[C@@H](CCCCNC(=S)Nc2ccc(CN3CCN(CC(=O)O)CCN(CC(=O)O)CC3)cc2)C(=O)N[C@H](C(=O)NCC(N)=O)CSCC(=O)N[C@@H](Cc2ccc(O)cc2)C(=O)N(C)[C@@H](C)C(=O)N[C@@H](CC(N)=O)C(=O)N2CCC[C@H]2C(=O)N[C@@H](Cc2cnc[nH]2)C(=O)N[C@@H](CCC(=O)O)C(=O)N2C[C@H](O)C[C@H]2C(=O)N[C@@H](Cc2c[nH]c3ccccc23)C(=O)N[C@@H](CO)C(=O)N[C@@H](Cc2cn(CC(=O)O)c3ccccc23)C(=O)N1C` [DK222] ({CH2CO}-Y[NMeA]NPHE[Hyp]WS[Trp(1-CH2COOH)][NMeNle][NMeNle]K(X1)CG-NH2; thioether N-14), at PD-L1 binding to PD-1, the IC50 was determined as 28000 pM. Further, at PD-L1 binding to PD-1 (protein-based assay), the “inhibit PD1:PD-L1 interaction” value was “at nanomolar concentrations”.

For “Pembrolizumab: aPD-1 mAb [reference compound]”, the “increase in median [^18F]DK222 uptake compared to NSG mice” value with A375 melanoma xenografts is listed as 85%.

On to `CCCC[C@H]1C(=O)N(C)[C@@H](CCCC)C(=O)N[C@@H](CCCCNC(=O)c2ccc([18F])nc2)C(=O)N[C@H](C(=O)NCC(N)=O)CSCC(=O)N[C@@H](Cc2ccc(O)cc2)C(=O)N(C)[C@@H](C)C(=O)N[C@@H](CC(N)=O)C(=O)N2CCC[C@H]2C(=O)N[C@@H](Cc2cnc[nH]2)C(=O)N[C@@H](CCC(=O)O)C(=O)N2C[C@H](O)C[C@H]2C(=O)N[C@@H](Cc2c[nH]c3ccccc23)C(=O)N[C@@H](CO)C(=O)N[C@@H](Cc2cn(CC(=O)O)c3ccccc23)C(=O)N1C` [[^18F]DK221-Py], for which the PET image contrast result in the data set on hPD-L1/CHO xenografts is “poor image contrast”.

Turning to Atezolizumab: aPD-L1 mAb, isotype IgG1κ, the Kd with PD-L1 was 400 pM. Besides, the t1/2 in data set [1] was 27 days. Besides, the “reduction in [^18F]DK222 uptake in tumors vs vehicle” value in the data set with LOX-IMVI tumors (0.3 mg/kg single i.v. dose) amounted to 32%; with LOX-IMVI tumors (20 mg/kg single i.v. dose) it was 89%.

With “Nivolumab: aPD-1 mAb [reference compound]”, the “increase in median [^18F]DK222 uptake compared to NSG mice” value in the data set on A375 melanoma xenografts is reported as 148%. Moreover, in the data set on LOX-IMVI tumors (1 mg/kg mAb, 24 hours), the “mean LOX-IMVI tumor [^18F]DK222 uptake” value is reported as “approximately 20 % ID/g”.

Take Avelumab: aPD-L1 mAb, IgG1λ: the t1/2 in data set [1] is 6.1 days.
